Source: patent publication US20260355094A1, “COMBINATION OF AN ORGANOSILICON COMPOUND WITH A CROSSLINKED GLYCOSAMINOGLUCAN FOR PREVENTING AND REPAIRING CUTANEOUS AGEING” (LABORATOIRES FILL-MED MANUFACTURING, priority 2022, published 2026)

Legend:
collagen type I = details: in combination with resveratrol; human skin fibroblasts; cited from earlier work
elastin = details: in combination with resveratrol; human skin fibroblasts; cited from earlier work
[1] = system: hyaluronan synthase type 2 (HAS2); details: in combination with resveratrol; human skin fibroblasts; cited from earlier work
fibroblasts = test: Contractile force of fibroblasts in equivalent dermis (Glassbox system); type: cell-based; details: 2.5 ng/ml, positive contraction control
Protocol: AFU+Si was tested to evaluate the effect on contractile force of fibroblasts in a Glassbox system, when compared to Si and AFU.
An equivalent dermis was developed in a culture box consisting of eight rectangular tanks. In each tank, two flexible blades were plunged, the lower parts of which were made up of grids on which the equivalent dermis clang during its polymerization. The equivalent dermis developed between the two blades to result in a rectangular shape slightly narrowed in the center.
Under the influence of the contraction forces developed by fibroblasts, the blades were deformed. Their deformation was measured in real time using optical fibers and adapted software. The deformation was proportional to the force developed within the equivalent dermis.
Prior to the test for contractile force, different concentrations of products diluted in cellular culture medium were tested for cellular viability. Among these, the following concentrations were chosen for the contractile force test: 0.005%, 0.05%, 0.0005% and 0.0025%.

Compound | expression of collagen type I gene (collagen type I) | expression of elastin gene (elastin) | expression of hyaluronan synthase type 2 (HAS2) gene [1] | contractile forces (fibroblasts)
C[SiH2]O.O=C[C@@H](O)[C@@H](O)[C@H](O)[C@H](O)C(=O)O [methylsilanol mannuronate] | promoting the expression | promoting the expression | promoting the expression | 
TGFβ1: used as a positive contraction control |  |  |  | significant increase in contractile forces
